Patent publication US20240365785A1, “ACTIVE COMPOUND COMBINATIONS AND FUNGICIDE COMPOSITIONS COMPRISING THOSE” (Bayer Aktiengesellschaft, priority 2021, published 2024)

Columns and labels:
Assay type in all cases: cell-based
Conditions in all cases: alone
Colletotrichum coccodes = assay: in vitro-Test with Colletotrichum coccodes
Fusarium culmorum = assay: in vitro-Test with Fusarium culmorum
Description: Wells of 96-well microtiter plates are filled with 10 μl of a preparation of test compound or compound combination in methanol+emulsifier alkylaryl-polyglycol-ether. Thereafter, the solvent is evaporated in a hood. At the next step, into each well 100 μl of liquid potato dextrose medium is given, that has been amended with an appropriate concentration of spores or mycelium suspension of the test fungus.
With the aid of a photometer the extinction in all wells is measured at the wavelength of 620 nm.
The microtiter plates are incubated at 20° C. and 85% relative humidity. The inhibition of growth is determined again photometrically 3-5 days after the application. Efficacy is calculated in relation to the untreated control, 0% efficacy means fungal growth as high as in untreated control while 100% efficacy means no fungal growth is measured.

Botrytis cinerea = assay: in vitro-Test with Botrytis cinerea
Cordana musae = assay: in vitro-Test with Cordana musae
Diaporthe citri = assay: in vitro-Test with Diaporthe citri
Alternaria alternata = assay: in vitro-Test with Alternaria alternata

`CCC(=O)Oc1c(OC)ccnc1C(=O)N[C@@H](C)C(=O)O[C@@H](C)[C@@H](C)c1ccccc1C` [(3.017) Metarylpicoxamid, metarylpicoxamid, reference compound] was tested, and the Efficacy % (Colletotrichum coccodes; 0.08 ppm) was 19%, the Efficacy % (Colletotrichum coccodes; 0.4 ppm) was 26% and the Efficacy % (Fusarium culmorum; 0.08 ppm) was 10%. For the same molecule, the Efficacy % (Fusarium culmorum; 2 ppm) was 0%, the Efficacy % (Fusarium culmorum; 10 ppm) was 4% and the Efficacy % (Botrytis cinerea; 0.8 ppm) was 0%. For the same molecule, the Efficacy % (Botrytis cinerea; 10 ppm) was 20%, the Efficacy % (Cordana musae; 0.08 ppm) was 44% and the Efficacy % (Diaporthe citri; 2 ppm) was 89%. It also gave an Efficacy % (Diaporthe citri; 10 ppm) of 89% and an Efficacy % (Alternaria alternata; 10 ppm) of 50%.

For `COC(=O)C(O)(Cn1cncn1)c1ccc(Oc2ccc(Cl)cc2)cc1Cl` (centres unmarked) [(I-1), Methyl 2-[2-chloro-4-(4-chlorophenoxy)phenyl]-2-hydroxy-3-(1,2,4-triazol-1-yl)propanoate], the Efficacy % (Colletotrichum coccodes; 0.02 ppm) was 0%, the Efficacy % (Colletotrichum coccodes; 0.1 ppm) was 0% and the Efficacy % (Colletotrichum coccodes; 2.5 ppm) was 91%. It also gave an Efficacy % (Fusarium culmorum; 2.5 ppm) of 25%, an Efficacy % (Botrytis cinerea; 0.02 ppm) of 1% and an Efficacy % (Botrytis cinerea; 0.1 ppm) of 0%. The Efficacy % (Cordana musae; 0.02 ppm) was 14%, the Efficacy % (Cordana musae; 0.5 ppm) was 54% and the Efficacy % (Cordana musae; 2.5 ppm) was 97%. The Efficacy % (Diaporthe citri; 0.02 ppm) was 0%, the Efficacy % (Diaporthe citri; 0.1 ppm) was 0% and the Efficacy % (Diaporthe citri; 2.5 ppm) was 100%. For the same molecule, the Efficacy % (Alternaria alternata; 0.02 ppm) was 3%, the Efficacy % (Alternaria alternata; 0.1 ppm) was 0% and the Efficacy % (Alternaria alternata; 0.5 ppm) was 18%.
